From patent US20250144067A1, “PERSONALIZED STARVATION THERAPY FOR CANCER” (Faeth Therapeutics, Inc., priority 2021, published 2025)
Structures can show the parent of a compound that is named as a salt. Where two headings read alike, the source gives them in different places.

Key:
[1] = tested on: NCI-H292 lung cancer cells; test: FDA drug screening, complete media vs cholesterol-free media with simvastatin (TABLE 2); type: cell-based, human
[2] = tested on: NCI-H292 lung cancer cells; test: FDA drug screening, complete media vs cholesterol-free media without statin (TABLE 1); type: cell-based, human
[3] = NCI-H292 cells, FDA drug library screen, cholesterol-free media with simvastatin 0.04 μM
[4] = NCI-H292 cells, FDA drug library screen, complete media
[5] = complete media minus cholesterol-free media + simvastatin, >0 enhanced anti-cancer activity, about 0 neutral, <0 antagonist
[6] = Complete minus Cholesterol-free, >0 enhanced anti-cancer activity, about 0 neutral, <0 antagonist
[7] = NCI-H292 cells, cholesterol-free media without statin
[8] = NCI-H292 cells, cholesterol-free media with simvastatin 0.04 μM, cell growth value in FDA drug screen
[9] = NCI-H292 cells, complete media, cell growth value in FDA drug screen
[10] = complete media vs cholesterol-free media + simvastatin (0.04 μM), […]
[11] = Complete minus Cholesterol-free, […]
[12] = NCI-H292 cells, cholesterol-free media without statin, FDA drug library screen
[13] = NCI-H292 cells, complete media, FDA drug library screen
[14] = NCI-H292 cells, cholesterol-free media with simvastatin 0.04 μM, FDA drug library screen (TABLE 2)
[15] = NCI-H292 cells, complete media, FDA drug library screen (TABLE 2)
[16] = NCI-H292 cells, FDA drug library screen, cholesterol-free media without statin
[17] = NCI-H292 cells, FDA library drug in cholesterol-free media with simvastatin 0.04 μM
[18] = NCI-H292 cells, FDA library drug in complete media
[19] = complete media vs cholesterol-free media + simvastatin (0.04 μM), >0 enhanced anti-cancer activity, about 0 neutral, <0 antagonist
[20] = complete vs cholesterol-free media, greater than 0 enhanced anti-cancer activity, about 0 neutral, below 0 antagonists
[21] = NCI-H292 cells, cholesterol-free media with simvastatin 0.04 μM, […]
[22] = NCI-H292 cells, complete media, […]
[23] = complete media minus cholesterol-free media + simvastatin, […]
[24] = complete media minus cholesterol-free media + simvastatin (0.04 μM), […]
[25] = NCI-H292 cells, drug in cholesterol-free media with simvastatin 0.04 μM
[26] = NCI-H292 cells, drug in complete media
[27] = complete vs cholesterol-free media, […]

Compound: CC(C(=O)O)c1ccc(CC2CCCC2=O)cc1 (centres unmarked) [Loxoprofen (sodium)]
- Cholesterol-free media + simvastatin (0.04 μM) [1, 3]: 1.087
- Complete Media [1, 4]: 1.62
- Difference [1, 5]: 0.53
- Difference [2, 6]: −0.22
- Cholesterol-free [2, 7]: 0.9775
- Complete ([2]; NCI-H292 cells, complete media): 0.7554

Compound: CCCCCCCC/C=C\CCCCCCCC(=O)O [Oleic acid]
- Cholesterol-free media + simvastatin (0.04 μM) [1, 8]: 0.7267
- Complete Media [1, 9]: 0.8301
- Difference [1, 5]: 0.10
- Difference [2, 6]: −0.25
- Cholesterol-free [2, 7]: 1.214
- Complete ([2]; NCI-H292 cells, complete media): 0.9643

Compound: Vinblastine (sulfate)
- Cholesterol-free media + simvastatin (0.04 μM) [1, 3]: 0.2181
- Complete Media [1, 4]: 0.1119
- Difference [1, 10]: −0.11
- Difference [2, 11]: 0.04
- Cholesterol-free [2, 12]: 0.05138
- Complete [2, 13]: 0.09114

Compound: Cl.NCCC[C@H](N)C(=O)O [L-Ornithine (hydrochloride)]
- Cholesterol-free media + simvastatin (0.04 μM) [1, 14]: 0.8763
- Complete Media [1, 15]: 0.8132
- Difference ([1]; complete media minus cholesterol-free media + simvastatin (0.04 μM), >0 enhanced anti-cancer activity, about 0 neutral, <0 antagonist): −0.06
- Difference ([2]; Complete minus Cholesterol-free, greater than 0 enhanced anti-cancer activity, about 0 neutral, below 0 antagonist): −0.11
- Cholesterol-free [2, 16]: 1.434
- Complete [2, 4]: 1.328

Compound: CC1CCC(C(C)C)C(O)C1 (single isomer, unassigned; (-)) [(−)-Menthol]
- Cholesterol-free media + simvastatin (0.04 μM) [1, 17]: 1.223
- Complete Media [1, 18]: 0.8866
- Difference [1, 19]: −0.34
- Cholesterol-free [2, 7]: 1.434
- Complete ([2]; NCI-H292 cells, complete media): 1.115
- Difference [2, 20]: −0.32

Compound: Cl.Cl.OCCOCCN1CCN(C(c2ccccc2)c2ccccc2)CC1 [Decloxizine (dihydrochloride)]
- Cholesterol-free media + simvastatin (0.04 μM) [1, 21]: 0.9553
- Complete Media [1, 22]: 1.042
- Difference [1, 23]: 0.09
- Difference [2, 11]: −0.22
- Cholesterol-free [2, 7]: 1.186
- Complete ([2]; NCI-H292 cells, complete media): 0.9687

Compound: Tosufloxacin (tosylate hydrate)
- Cholesterol-free media + simvastatin (0.04 μM) [1, 3]: 1.004
- Complete Media [1, 4]: 0.9272
- Difference [1, 19]: −0.08
- Cholesterol-free [2, 7]: 1.21
- Complete ([2]; NCI-H292 cells, complete media): 0.8679
- Difference [2, 20]: −0.34

Compound: C[C@H](CSC(=O)c1ccccc1)C(=O)N1C[C@@H](Sc2ccccc2)C[C@H]1C(=O)O [Zofenopril (calcium)]
- Cholesterol-free media + simvastatin (0.04 μM) [1, 14]: 0.8443
- Complete Media [1, 15]: 0.8399
- Difference [1, 24]: 0.00
- Difference [2, 11]: −0.03
- Cholesterol-free [2, 12]: 1.281
- Complete [2, 13]: 1.25

Compound: Clc1ccc2nsnc2c1NC1=NCCN1 [Tizanidine (hydrochloride)]
- Cholesterol-free media + simvastatin (0.04 μM) [1, 25]: 1.174
- Complete Media [1, 26]: 0.9856
- Difference [1, 19]: −0.19
- Difference [2, 6]: 0.02
- Cholesterol-free [2, 12]: 1.07
- Complete [2, 13]: 1.09

Compound: C[C@@H]1O[C@@H]1P(=O)(O)O [Fosfomycin (calcium)]
- Cholesterol-free media + simvastatin (0.04 μM) [1, 25]: 1.093
- Complete Media [1, 26]: 0.8864
- Difference [1, 19]: −0.21
- Difference [2, 6]: −0.27
- Cholesterol-free [2, 7]: 1.27
- Complete ([2]; NCI-H292 cells, complete media): 1.001

Compound: OC[C@@H](O)[C@@H](O[C@H]1O[C@H](CO)[C@@H](O)[C@H](O)[C@H]1O)[C@H](O)[C@@H](O)CO [Maltitol]
- Cholesterol-free media + simvastatin (0.04 μM) [1, 17]: 1.264
- Complete Media [1, 18]: 0.9377
- Difference [1, 19]: −0.33
- Cholesterol-free [2, 7]: 1.093
- Complete ([2]; NCI-H292 cells, complete media): 0.7088
- Difference [2, 20]: −0.38

Compound: CC[C@@]1(O)C[C@H](O[C@H]2C[C@H](N(C)C)[C@H](O[C@H]3C[C@H](O)[C@H](O[C@H]4CCC(=O)[C@H](C)O4)[C@H](C)O3)[C@H](C)O2)c2c(cc3c(c2O)C(=O)c2c(O)cccc2C3=O)[C@H]1C(=O)OC.Cl [Aclacinomycin A hydrochloride]
- Cholesterol-free media + simvastatin (0.04 μM) [1, 14]: 0.01688
- Complete Media [1, 15]: 0.01023
- Difference [1, 24]: −0.01
- Difference [2, 11]: −0.01
- Cholesterol-free [2, 12]: 0.01335
- Complete [2, 13]: 0.007534

Compound: Methylergometrine (maleate)
- Cholesterol-free media + simvastatin (0.04 μM) [1, 3]: 1.017
- Complete Media [1, 4]: 0.9007
- Difference [1, 10]: −0.12
- Cholesterol-free [2, 7]: 1.022
- Difference [2, 27]: −0.31

Compound: O[C@H]([C@H](O)[C@@H]1CO1)[C@H]1CO1 [VAL-083]
- Cholesterol-free media + simvastatin (0.04 μM) [1, 25]: 0.879
- Complete Media [1, 26]: 0.7017
- Difference [1, 10]: −0.18
- Cholesterol-free [2, 7]: 1.036
- Complete ([2]; NCI-H292 cells, complete media): 0.6339
- Difference [2, 27]: −0.40

Compound: O=C(Nc1ccccc1)c1ccccc1O [Salicylanilide]
- Cholesterol-free media + simvastatin (0.04 μM) [1, 21]: 1.321
- Complete Media [1, 22]: 1.359
- Difference [1, 23]: 0.04
- Difference [2, 11]: −0.19
- Cholesterol-free [2, 16]: 1.231
- Complete [2, 4]: 1.046

Compound: COc1cc2ncnc(Nc3ccc(F)c(Cl)c3)c2cc1OCCCN1CCOCC1 [Gefitinib]
- Cholesterol-free media + simvastatin (0.04 μM) [1, 8]: 0.5074
- Complete Media [1, 9]: 0.6027
- Difference [1, 5]: 0.10
- Difference [2, 6]: −0.25
- Cholesterol-free [2, 7]: 0.6996
- Complete ([2]; NCI-H292 cells, complete media): 0.4472

Compound: CC(=O)OCC(=O)[C@@]1(O)CC[C@H]2[C@@H]3CCC4=CC(=O)CC[C@]4(C)[C@@]3(F)[C@@H](O)C[C@@]21C [Fludrocortisone acetate]
- Cholesterol-free media + simvastatin (0.04 μM) [1, 8]: 0.45
- Complete Media [1, 9]: 0.5624
- Difference [1, 5]: 0.11
- Difference [2, 6]: −0.30
- Cholesterol-free [2, 7]: 0.7353
- Complete ([2]; NCI-H292 cells, complete media): 0.437

Compound: CC[C@H]1OC(=O)[C@H](C)[C@@H](O[C@H]2C[C@@](C)(OC)[C@@H](O)[C@H](C)O2)[C@H](C)[C@@H](O[C@@H]2O[C@H](C)C[C@H](N(C)C)[C@H]2O)[C@](C)(OC)C[C@@H](C)C(=O)[C@H](C)[C@@H](O)[C@]1(C)O [Clarithromycin]
- Cholesterol-free media + simvastatin (0.04 μM) [1, 3]: 1.214
- Complete Media [1, 4]: 1.064
- Difference [1, 19]: −0.15
- Difference ([2]; Complete minus Cholesterol-free, greater than 0 enhanced anti-cancer activity, about 0 neutral, below 0 antagonists): −0.74
- Cholesterol-free ([2]; NCI-H292 cells in cholesterol-free media without statin): 1.607
- Complete ([2]; NCI-H292 cells in complete media): 0.8616

Compound: CO[C@H]1/C=C/O[C@@]2(C)Oc3c(C)c(O)c4c(O)c(c5c(nc6cc(C)ccn65)c4c3C2=O)NC(=O)/C(C)=C\C=C\[C@H](C)[C@H](O)[C@@H](C)[C@@H](O)[C@@H](C)[C@H](OC(C)=O)[C@@H]1C [Rifaximin]
- Cholesterol-free media + simvastatin (0.04 μM) [1, 3]: 0.8832
- Complete Media [1, 4]: 0.7304
- Difference [1, 19]: −0.15
- Cholesterol-free [2, 12]: 0.8156
- Complete [2, 13]: 1.163
- Difference ([2]; complete vs cholesterol-free media, >0 enhanced anti-cancer activity, about 0 neutral, <0 antagonist): 0.35

Compound: Clc1ccc2c(c1)CCc1cccnc1C2=C1CCNCC1 [Desloratadine]
- Cholesterol-free media + simvastatin (0.04 μM) [1]: 0.922
- Complete Media [1]: 0.6254
- Difference [1]: −0.30
- Cholesterol-free [2]: 1.114
- Complete [2]: 0.8419
- Difference [2]: −0.27

Compound: CCC(=O)Oc1ccc2c(c1)CC[C@@H]1[C@@H]2CC[C@]2(C)[C@@H](OC(=O)CC)CC[C@@H]12 [Estradiol dipropionate]
- Cholesterol-free media + simvastatin (0.04 μM) [1, 17]: 1.891
- Complete Media [1, 18]: 1.522
- Difference [1, 10]: −0.37
- Difference [2, 11]: −0.07
- Cholesterol-free [2, 16]: 0.9963
- Complete [2, 4]: 0.9247
